{
  "source": "PubChem BioAssay AID256",
  "about": "(DTP/NCI, 2004)",
  "test_system": "CD2F1 mice, L1210 leukemia ip, survival T/C",
  "experiment": "NCI In Vivo Anticancer Drug Screen. Data for tumor model L1210 Leukemia (intraperitoneal) in CD2F1 (CDF1) mice",
  "details": "higher = longer survival",
  "summary_of_the_method": "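Mice carrying a transplanted tumor received test compound or vehicle alone. The value is the measurement in the treated group divided by that in the vehicle-treated control group.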",
  "note": "Where “and” joins values, the source holds several entries; their conditions need not be identical. Equal values may be shown once. Toxic doses and inconclusive results are not listed.",
  "data": [
    {"compound": "O=C1NCC(c2ccccc2)(C2CC2)O1", "note": "(stereo not given)", "values": [
      {"measurement": "T/C", "setting": "endpoint: mean survival time, dose: 100.0 mg/kg/injection, schedule: Q04DX002 (ip), vehicle: saline with Tween-80", "value": "100 % of control"},
      {"measurement": "T/C", "setting": "endpoint: mean survival time, dose: 200.0 mg/kg/injection, schedule: Q04DX002 (ip), vehicle: saline with Tween-80", "value": "100 % of control"},
      {"measurement": "T/C", "setting": "endpoint: mean survival time, dose: 400.0 mg/kg/injection, schedule: Q04DX002 (ip), vehicle: saline with Tween-80", "value": "100 % of control"}
    ]},
    {"compound": "COc1ccc(CC(C)NC(=O)c2ccc(OC)c(OC)c2)cc1OC", "note": "(stereo not given)", "values": [
      {"measurement": "T/C", "setting": "endpoint: mean survival time, dose: 12.5 mg/kg/injection, schedule: Q01DX009 (ip), vehicle: other", "value": "105 % of control"},
      {"measurement": "T/C", "setting": "endpoint: mean survival time, dose: 25.0 mg/kg/injection, schedule: Q01DX009 (ip), vehicle: other", "value": "94 % of control"},
      {"measurement": "T/C", "setting": "endpoint: mean survival time, dose: 50.0 mg/kg/injection, schedule: Q01DX009 (ip), vehicle: other", "value": "96 % of control"},
      {"measurement": "T/C", "setting": "endpoint: mean survival time, dose: 100.0 mg/kg/injection, schedule: Q01DX009 (ip), vehicle: other", "value": "93 % of control"},
      {"measurement": "T/C", "setting": "endpoint: mean survival time, dose: 200.0 mg/kg/injection, schedule: Q01DX009 (ip), vehicle: other", "value": "94 % of control"}
    ]},
    {"compound": "COC(=O)c1ccccc1NC(=S)NC(=O)COc1ccccc1", "values": [
      {"measurement": "T/C", "setting": "endpoint: mean survival time, dose: 100.0 mg/kg/injection, schedule: Q01DX009 (ip), vehicle: saline with Tween-80", "value": "97 % of control"},
      {"measurement": "T/C", "setting": "endpoint: mean survival time, dose: 200.0 mg/kg/injection, schedule: Q01DX009 (ip), vehicle: saline with Tween-80", "value": "95 % of control"},
      {"measurement": "T/C", "setting": "endpoint: mean survival time, dose: 400.0 mg/kg/injection, schedule: Q01DX009 (ip), vehicle: saline with Tween-80", "value": "98 % of control"}
    ]},
    {"compound": "O=c1[nH]nc(-c2cccc3ccccc23)c2ccccc12", "values": [
      {"measurement": "T/C", "setting": "endpoint: mean survival time, dose: 100.0 mg/kg/injection, schedule: Q04DX003 (ip), vehicle: saline with Tween-80", "value": "97 % of control"},
      {"measurement": "T/C", "setting": "endpoint: mean survival time, dose: 200.0 mg/kg/injection, schedule: Q04DX003 (ip), vehicle: saline with Tween-80", "value": "94 % of control"},
      {"measurement": "T/C", "setting": "endpoint: mean survival time, dose: 400.0 mg/kg/injection, schedule: Q04DX003 (ip), vehicle: saline with Tween-80", "value": "97 % of control"}
    ]},
    {"compound": "Cc1cc(SCc2ccccc2)cc(C)[o+]1", "values": [
      {"measurement": "T/C", "setting": "endpoint: mean survival time, dose: 75.0 mg/kg/injection, schedule: Q01DX001 (ip), vehicle: saline", "value": "106 % of control"},
      {"measurement": "T/C", "setting": "endpoint: mean survival time, dose: 150.0 mg/kg/injection, schedule: Q01DX001 (ip), vehicle: saline", "value": "93 % of control"}
    ]},
    {"compound": "OC(CBr)C(O)C(O)C(O)CBr", "note": "(stereo not given)", "values": [
      {"measurement": "T/C", "setting": "endpoint: mean survival time, dose: 25.0 mg/kg/injection, schedule: Q01DX009 (oral), vehicle: other", "value": "109 % of control"},
      {"measurement": "T/C", "setting": "endpoint: mean survival time, dose: 50.0 mg/kg/injection, schedule: Q01DX009 (oral), vehicle: other", "value": "112 % of control"},
      {"measurement": "T/C", "setting": "endpoint: mean survival time, dose: 100.0 mg/kg/injection, schedule: Q01DX001 (ip), vehicle: saline", "value": "103 % of control"},
      {"measurement": "T/C", "setting": "endpoint: mean survival time, dose: 100.0 mg/kg/injection, schedule: Q01DX009 (oral), vehicle: other", "value": "121 % of control"},
      {"measurement": "T/C", "setting": "endpoint: mean survival time, dose: 100.0 mg/kg/injection, schedule: Q04DX003 (ip), vehicle: saline", "value": "101 % of control and 103 % of control"},
      {"measurement": "T/C", "setting": "endpoint: mean survival time, dose: 200.0 mg/kg/injection, schedule: Q01DX001 (ip), vehicle: saline", "value": "101 % of control"},
      {"measurement": "T/C", "setting": "endpoint: mean survival time, dose: 200.0 mg/kg/injection, schedule: Q04DX003 (ip), vehicle: Klucel (hydroxypropylcellulose) (HPC)", "value": "120 % of control"},
      {"measurement": "T/C", "setting": "endpoint: mean survival time, dose: 200.0 mg/kg/injection, schedule: Q04DX003 (ip), vehicle: saline", "value": "108 % of control"},
      {"measurement": "T/C", "setting": "endpoint: mean survival time, dose: 237.0 mg/kg/injection, schedule: Q04DX003 (ip), vehicle: saline with Tween-80", "value": "94 % of control"},
      {"measurement": "T/C", "setting": "endpoint: mean survival time, dose: 355.55 mg/kg/injection, schedule: Q04DX003 (ip), vehicle: saline with Tween-80", "value": "89 % of control"},
      {"measurement": "T/C", "setting": "endpoint: mean survival time, dose: 400.0 mg/kg/injection, schedule: Q01DX001 (ip), vehicle: saline", "value": "106 % of control"},
      {"measurement": "T/C", "setting": "endpoint: mean survival time, dose: 400.0 mg/kg/injection, schedule: Q01DX009 (oral), vehicle: other", "value": "113 % of control"},
      {"measurement": "T/C", "setting": "endpoint: mean survival time, dose: 400.0 mg/kg/injection, schedule: Q04DX003 (ip), vehicle: saline", "value": "101 % of control and 108 % of control"},
      {"measurement": "T/C", "setting": "endpoint: mean survival time, dose: 533.33 mg/kg/injection, schedule: Q04DX003 (ip), vehicle: saline with Tween-80", "value": "99 % of control"},
      {"measurement": "T/C", "setting": "endpoint: mean survival time, dose: 800.0 mg/kg/injection, schedule: Q04DX003 (ip), vehicle: saline with Tween-80", "value": "94 % of control"},
      {"measurement": "T/C", "setting": "endpoint: mean survival time, dose: 800.0 mg/kg/injection, schedule: Q04DX003 (ip), vehicle: saline", "value": "116 % of control"},
      {"measurement": "T/C", "setting": "endpoint: mean survival time, dose: 1200.0 mg/kg/injection, schedule: Q04DX003 (ip), vehicle: saline with Tween-80", "value": "98 % of control"},
      {"measurement": "T/C", "setting": "endpoint: mean survival time, dose: 1200.0 mg/kg/injection, schedule: Q04DX003 (ip), vehicle: saline", "value": "114 % of control"},
      {"measurement": "T/C", "setting": "endpoint: median survival time, dose: 8.0 mg/kg/injection, schedule: Q03HX024 (ip), vehicle: Klucel (hydroxypropylcellulose) (HPC)", "value": "103 % of control"},
      {"measurement": "T/C", "setting": "endpoint: median survival time, dose: 16.0 mg/kg/injection, schedule: Q03HX008 (ip), vehicle: Klucel (hydroxypropylcellulose) (HPC)", "value": "108 % of control"},
      {"measurement": "T/C", "setting": "endpoint: median survival time, dose: 16.0 mg/kg/injection, schedule: Q03HX016 (ip), vehicle: Klucel (hydroxypropylcellulose) (HPC)", "value": "105 % of control"},
      {"measurement": "T/C", "setting": "endpoint: median survival time, dose: 16.0 mg/kg/injection, schedule: Q03HX024 (ip), vehicle: Klucel (hydroxypropylcellulose) (HPC)", "value": "106 % of control"},
      {"measurement": "T/C", "setting": "endpoint: median survival time, dose: 32.0 mg/kg/injection, schedule: Q01DX009 (ip), vehicle: Klucel (hydroxypropylcellulose) (HPC)", "value": "104 % of control"},
      {"measurement": "T/C", "setting": "endpoint: median survival time, dose: 32.0 mg/kg/injection, schedule: Q03HX008 (ip), vehicle: Klucel (hydroxypropylcellulose) (HPC)", "value": "115 % of control"},
      {"measurement": "T/C", "setting": "endpoint: median survival time, dose: 32.0 mg/kg/injection, schedule: Q03HX016 (ip), vehicle: Klucel (hydroxypropylcellulose) (HPC)", "value": "103 % of control"},
      {"measurement": "T/C", "setting": "endpoint: median survival time, dose: 32.0 mg/kg/injection, schedule: Q03HX024 (ip), vehicle: Klucel (hydroxypropylcellulose) (HPC)", "value": "109 % of control"},
      {"measurement": "T/C", "setting": "endpoint: median survival time, dose: 64.0 mg/kg/injection, schedule: Q01DX009 (ip), vehicle: Klucel (hydroxypropylcellulose) (HPC)", "value": "105 % of control"},
      {"measurement": "T/C", "setting": "endpoint: median survival time, dose: 64.0 mg/kg/injection, schedule: Q04DX003 (ip), vehicle: Klucel (hydroxypropylcellulose) (HPC)", "value": "109 % of control"},
      {"measurement": "T/C", "setting": "endpoint: median survival time, dose: 120.0 mg/kg/injection, schedule: Q01DX005 (ip), vehicle: Klucel (hydroxypropylcellulose) (HPC)", "value": "151 % of control and 159 % of control and 163 % of control"},
      {"measurement": "T/C", "setting": "endpoint: median survival time, dose: 128.0 mg/kg/injection, schedule: Q01DX001 (ip), vehicle: Klucel (hydroxypropylcellulose) (HPC)", "value": "108 % of control"},
      {"measurement": "T/C", "setting": "endpoint: median survival time, dose: 128.0 mg/kg/injection, schedule: Q01DX009 (ip), vehicle: Klucel (hydroxypropylcellulose) (HPC)", "value": "86 % of control"},
      {"measurement": "T/C", "setting": "endpoint: median survival time, dose: 128.0 mg/kg/injection, schedule: Q04DX003 (ip), vehicle: Klucel (hydroxypropylcellulose) (HPC)", "value": "122 % of control"},
      {"measurement": "T/C", "setting": "endpoint: median survival time, dose: 128.0 mg/kg/injection, schedule: Q08DX002 (ip), vehicle: Klucel (hydroxypropylcellulose) (HPC)", "value": "109 % of control"},
      {"measurement": "T/C", "setting": "endpoint: median survival time, dose: 180.0 mg/kg/injection, schedule: Q01DX005 (ip), vehicle: Klucel (hydroxypropylcellulose) (HPC)", "value": "155 % of control and 162 % of control and 164 % of control"},
      {"measurement": "T/C", "setting": "endpoint: median survival time, dose: 200.0 mg/kg/injection, schedule: Q04DX003 (ip), vehicle: Klucel (hydroxypropylcellulose) (HPC)", "value": "151 % of control"},
      {"measurement": "T/C", "setting": "endpoint: median survival time, dose: 256.0 mg/kg/injection, schedule: Q01DX001 (ip), vehicle: Klucel (hydroxypropylcellulose) (HPC)", "value": "112 % of control"},
      {"measurement": "T/C", "setting": "endpoint: median survival time, dose: 256.0 mg/kg/injection, schedule: Q04DX003 (ip), vehicle: Klucel (hydroxypropylcellulose) (HPC)", "value": "109 % of control"},
      {"measurement": "T/C", "setting": "endpoint: median survival time, dose: 256.0 mg/kg/injection, schedule: Q08DX002 (ip), vehicle: Klucel (hydroxypropylcellulose) (HPC)", "value": "114 % of control"},
      {"measurement": "T/C", "setting": "endpoint: median survival time, dose: 270.0 mg/kg/injection, schedule: Q01DX005 (ip), vehicle: Klucel (hydroxypropylcellulose) (HPC)", "value": "100 % of control"},
      {"measurement": "T/C", "setting": "endpoint: median survival time, dose: 300.0 mg/kg/injection, schedule: Q04DX003 (ip), vehicle: Klucel (hydroxypropylcellulose) (HPC)", "value": "155 % of control and 184 % of control and 197 % of control"},
      {"measurement": "T/C", "setting": "endpoint: median survival time, dose: 400.0 mg/kg/injection, schedule: Q04DX003 (ip), vehicle: Klucel (hydroxypropylcellulose) (HPC)", "value": "195 % of control"},
      {"measurement": "T/C", "setting": "endpoint: median survival time, dose: 512.0 mg/kg/injection, schedule: Q01DX001 (ip), vehicle: Klucel (hydroxypropylcellulose) (HPC)", "value": "95 % of control"},
      {"measurement": "T/C", "setting": "endpoint: median survival time, dose: 512.0 mg/kg/injection, schedule: Q04DX003 (ip), vehicle: Klucel (hydroxypropylcellulose) (HPC)", "value": "112 % of control"},
      {"measurement": "T/C", "setting": "endpoint: median survival time, dose: 512.0 mg/kg/injection, schedule: Q08DX002 (ip), vehicle: Klucel (hydroxypropylcellulose) (HPC)", "value": "122 % of control"}
    ]}
  ]
}
